Data reported in the supplement of paper PMC10307832.

Columns and labels:
Assay in all cases: relative viability (nuclei count vs DMSO), 5 days (fraction); higher = more cells survive
HCC-44 = test system: HCC-44
Method in brief: (§1)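 Cells from lung cancer lines were seeded into 1536-well plates and, one day later, dosed by pin tool. Treatments were either a single drug or a fixed dose of an anchor drug with five library-drug doses (not always all listed) in √10 steps. After 5 days, nuclei were stained in a one-step fixation (final 0.05% Triton X-100, 1% formaldehyde, 1 ug/ml Hoechst) and counted on 4× images, and relative viability is the treated-to-vehicle nuclei ratio, as the median of duplicate plates.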

NCI-H647 = test system: NCI-H647
Method in brief: as §1

NCI-H1437 = test system: NCI-H1437
Method in brief: as §1

LCLC-97TM1 = test system: LCLC-97TM1
Method in brief: as §1

PC-3 [JPC-3] = test system: PC-3 [JPC-3]
Method in brief: as §1

EKVX = test system: EKVX
Method in brief: as §1

NCI-H1666 = test system: NCI-H1666
Method in brief: as §1

H3255 = test system: H3255
Method in brief: as §1

NCI-H650 = test system: NCI-H650
Method in brief: as §1

LOU-NH91 = test system: LOU-NH91
Method in brief: as §1

SW 1573 = test system: SW 1573
Method in brief: as §1

201T = test system: 201T
Method in brief: as §1

NCI-H1975 = test system: NCI-H1975
Method in brief: as §1

NCI-H2342 = test system: NCI-H2342
Method in brief: as §1

HCC-827 = test system: HCC-827
Method in brief: as §1

LU99A = test system: LU99A
Method in brief: as §1

NCI-H2085 = test system: NCI-H2085
Method in brief: as §1

COR-L 105 = test system: COR-L 105
Method in brief: as §1

EPLC-272H = test system: EPLC-272H
Method in brief: as §1

NCI-H2170 = test system: NCI-H2170
Method in brief: as §1

NCI-H2087 = test system: NCI-H2087
Method in brief: as §1

BEN = test system: BEN
Method in brief: as §1

COc1nc(C)cnc1NS(=O)(=O)c1cccnc1-c1ccc(-c2nnco2)cc1 [Zibotentan] + O=C(CCCCCCC(=O)Nc1ccccc1)NO [Vorinostat] (partner 1 µM)
relative viability (HCC-44; first compound 0.08 µM): 1.12
relative viability (HCC-44; first compound 0.253 µM): 1.08
relative viability (HCC-44; first compound 0.8 µM): 1.02
relative viability (HCC-44; first compound 2.53 µM): 1.08
relative viability (NCI-H647; first compound 0.08 µM): 0.649
relative viability (NCI-H647; first compound 0.253 µM): 0.381
relative viability (NCI-H647; first compound 0.8 µM): 0.718
relative viability (NCI-H647; first compound 2.53 µM): 0.698
relative viability (NCI-H1437; first compound 0.08 µM): 1.05
relative viability (NCI-H1437; first compound 0.253 µM): 0.823
relative viability (NCI-H1437; first compound 0.8 µM): 0.834
relative viability (NCI-H1437; first compound 2.53 µM): 0.828
relative viability (LCLC-97TM1; first compound 0.08 µM): 0.822
relative viability (LCLC-97TM1; first compound 0.253 µM): 0.831
relative viability (LCLC-97TM1; first compound 0.8 µM): 0.697
relative viability (LCLC-97TM1; first compound 2.53 µM): 0.755
relative viability (PC-3 [JPC-3]; first compound 0.08 µM): 1.19
relative viability (PC-3 [JPC-3]; first compound 0.253 µM): 0.561
relative viability (PC-3 [JPC-3]; first compound 0.8 µM): 0.72
relative viability (PC-3 [JPC-3]; first compound 2.53 µM): 0.867
relative viability (EKVX; first compound 0.08 µM): 0.675
relative viability (EKVX; first compound 0.253 µM): 0.818
relative viability (EKVX; first compound 0.8 µM): 0.727
relative viability (EKVX; first compound 2.53 µM): 0.777
relative viability (NCI-H1666; first compound 0.08 µM): 1.17
relative viability (NCI-H1666; first compound 0.253 µM): 0.95
relative viability (NCI-H1666; first compound 0.8 µM): 1.04
relative viability (NCI-H1666; first compound 2.53 µM): 1.1
relative viability (H3255; first compound 0.08 µM): 0.926
relative viability (H3255; first compound 0.253 µM): 0.785
relative viability (H3255; first compound 0.8 µM): 0.877
relative viability (H3255; first compound 2.53 µM): 0.778
relative viability (NCI-H650; first compound 0.08 µM): 0.53
relative viability (NCI-H650; first compound 0.253 µM): 0.403
relative viability (NCI-H650; first compound 0.8 µM): 0.625
relative viability (NCI-H650; first compound 2.53 µM): 0.536
relative viability (LOU-NH91; first compound 0.08 µM): 0.941
relative viability (LOU-NH91; first compound 0.253 µM): 0.78
relative viability (LOU-NH91; first compound 0.8 µM): 0.953
relative viability (LOU-NH91; first compound 2.53 µM): 0.947
relative viability (SW 1573; first compound 0.08 µM): 0.76
relative viability (SW 1573; first compound 0.8 µM): 0.957
relative viability (SW 1573; first compound 2.53 µM): 0.885
relative viability (201T; first compound 0.08 µM): 0.96
relative viability (201T; first compound 0.253 µM): 0.972
relative viability (201T; first compound 0.8 µM): 0.952
relative viability (201T; first compound 2.53 µM): 1
relative viability (NCI-H1975; first compound 0.08 µM): 0.758
relative viability (NCI-H1975; first compound 0.253 µM): 0.646
relative viability (NCI-H1975; first compound 0.8 µM): 0.632
relative viability (NCI-H1975; first compound 2.53 µM): 0.7
relative viability (NCI-H2342; first compound 0.08 µM): 0.832
relative viability (NCI-H2342; first compound 0.253 µM): 0.778
relative viability (NCI-H2342; first compound 0.8 µM): 0.778
relative viability (NCI-H2342; first compound 2.53 µM): 0.678
relative viability (HCC-827; first compound 0.08 µM): 0.958
relative viability (HCC-827; first compound 0.253 µM): 0.771
relative viability (HCC-827; first compound 0.8 µM): 0.811
relative viability (HCC-827; first compound 2.53 µM): 0.785
relative viability (LU99A; first compound 0.08 µM): 0.514
relative viability (LU99A; first compound 0.253 µM): 0.537
relative viability (LU99A; first compound 0.8 µM): 0.463
relative viability (LU99A; first compound 2.53 µM): 0.477
relative viability (NCI-H2085; first compound 0.08 µM): 0.762
relative viability (NCI-H2085; first compound 0.253 µM): 0.766
relative viability (NCI-H2085; first compound 0.8 µM): 0.769
relative viability (NCI-H2085; first compound 2.53 µM): 0.824
relative viability (COR-L 105; first compound 0.08 µM): 0.904
relative viability (COR-L 105; first compound 0.253 µM): 0.756
relative viability (COR-L 105; first compound 0.8 µM): 0.781
relative viability (COR-L 105; first compound 2.53 µM): 0.99
relative viability (EPLC-272H; first compound 0.253 µM): 0.506
relative viability (EPLC-272H; first compound 0.8 µM): 0.667
relative viability (EPLC-272H; first compound 2.53 µM): 0.501
relative viability (NCI-H2170; first compound 0.08 µM): 0.883
relative viability (NCI-H2170; first compound 0.253 µM): 0.778
relative viability (NCI-H2170; first compound 0.8 µM): 0.875
relative viability (NCI-H2170; first compound 2.53 µM): 0.908
relative viability (NCI-H2087; first compound 0.08 µM): 0.719
relative viability (NCI-H2087; first compound 0.253 µM): 0.679
relative viability (NCI-H2087; first compound 0.8 µM): 0.752
relative viability (NCI-H2087; first compound 2.53 µM): 0.732
relative viability (BEN; first compound 0.08 µM): 0.571
relative viability (BEN; first compound 0.253 µM): 0.556
relative viability (BEN; first compound 0.8 µM): 0.568
relative viability (BEN; first compound 2.53 µM): 0.517
